Experimental data reported in the NIST ThermoML archive (doi:10.1021/je700486g).
Numbers after ± are expanded uncertainties.

Settings: Crystal; visual observation

Structure (SMILES) | Normal melting temperature
c1ccc2c(c1)-c1cccc3cccc-2c13 [fluoranthene] | 108.4 ± 3 °C
CC(=O)Oc1ccccc1C(=O)O [2-acetoxybenzoic acid] | 135.4 ± 1.1 °C
O=C(O)c1ccccc1 [benzoic acid] | 122 ± 1 °C
O=C(O)c1ccccc1O [2-hydroxybenzoic acid] | 159 ± 1 °C
